The numbers were not newly measured in patent US20250356959A1, “Toxicity Prediction Of Compounds In Cellular Structures” (Sanofi, priority 2022, published 2025), which cites them from elsewhere.

For this series, the system named is liver cells. Particulars: positive control, 60 micro moles.

For `CN(C)CCCN1c2ccccc2Sc2ccc(Cl)cc21` [CPZ, Chlorpromazine], the “known toxic effect of reference compound” value is “toxic to liver cells and triggers cholestasis”.
